This passage reports TGI and GI50 results from PubChem BioAssay (NCI).

Test systems include A549 NSCLC; HCT-116 colon; MDA-MB-231 breast; MDA-MB-435; PC-3 prostate; RPMI-8226 leukemia; SK-MEL-28 melanoma; UACC-62 melanoma; UO-31 renal; MOLT-4 leukemia.
Holding throughout (assay): growth of human tumour cells (NCI), 48 h

Structures are written as SMILES.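 A five-concentration, 48-hour dose response in 96-well plates underlies each endpoint, interpolated linearly between surrounding concentrations. At the GI50, growth is halved. Definition used: TGI = concentration required for complete inhibition of growth.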

As to `CCC1(O)C(=O)OCc2c1cc1n(c2=O)Cc2cc3ccccc3nc2-1` (configuration not stated), the TGI with A549 NSCLC is 0.334 µM; in the assay with HCT-116 colon, 0.614 µM; in the assay with MDA-MB-231 breast, 7.06 µM; in the assay with MDA-MB-435, 8.35 µM; with PC-3 prostate, 23.9 µM; with RPMI-8226 leukemia it was 1.89 µM. Besides, the results for the TGI in the assay on SK-MEL-28 melanoma, with UACC-62 melanoma and with UO-31 renal were 18.4 µM, 0.0379 µM and 0.156 µM, respectively.

As for `CC1=C2C(=C[C@@](C)(CO)[C@@H]2OC(=O)N(C)CCN(C)C(=O)OC(C)(C)C)C(=O)[C@](C)(O)C12CC2`, the GI50 was 5.88 µM with A549 NSCLC; 2.76 µM with HCT-116 colon; 9.64 µM with MDA-MB-231 breast; 9.74 µM in the assay on MDA-MB-435; 31.5 µM with MOLT-4 leukemia; 7.19 µM in the assay on PC-3 prostate. For the same molecule, the GI50 is 5.83 µM in the assay on RPMI-8226 leukemia, 9.83 µM in the assay with SK-MEL-28 melanoma, 8.33 µM with UACC-62 melanoma and 2.17 µM in the assay on UO-31 renal. The TGI was > 50 µM with A549 NSCLC; > 50 µM with HCT-116 colon; 39.3 µM with MDA-MB-231 breast; 23.1 µM in the assay with MDA-MB-435; > 50 µM in the assay on MOLT-4 leukemia; 28.6 µM with PC-3 prostate. The TGI with RPMI-8226 leukemia came out at 43.8 µM; in the assay on SK-MEL-28 melanoma it was 26.5 µM; in the assay with UACC-62 melanoma, 17.8 µM; in the assay with UO-31 renal it was 14.9 µM.

For the molecule `CNC(=S)Nc1ccc(OC)c2ccccc12`, the TGI in the assay with A549 NSCLC, with HCT-116 colon, in the assay with MDA-MB-231 breast, in the assay on MDA-MB-435, with MOLT-4 leukemia and in the assay with PC-3 prostate was > 10 µM throughout. Besides, the TGI in the assay on RPMI-8226 leukemia, with SK-MEL-28 melanoma and with UACC-62 melanoma was > 10 µM each time.

Regarding `CC(=O)c1c(C(F)(F)F)n([O-])c2ccccc2[n+]1=O`, the GI50 in the assay on A549 NSCLC is 2.28 µM; in the assay on HCT-116 colon it was 1.55 µM; with MDA-MB-231 breast it was 1.27 µM; in the assay on MDA-MB-435, 1.2 µM; in the assay on MOLT-4 leukemia, 0.613 µM; with PC-3 prostate it was 1.3 µM. The GI50 is 0.572 µM in the assay with RPMI-8226 leukemia, 3.48 µM with SK-MEL-28 melanoma, 0.7 µM with UACC-62 melanoma and 2.69 µM in the assay with UO-31 renal. Moreover, the TGI is 14.3 µM in the assay on A549 NSCLC; 10.5 µM in the assay on HCT-116 colon; 3.61 µM with MDA-MB-231 breast; 4.03 µM with MDA-MB-435; > 100 µM in the assay with MOLT-4 leukemia; 10.8 µM with PC-3 prostate. Also, the TGI in the assay on RPMI-8226 leukemia is 3.62 µM; in the assay on SK-MEL-28 melanoma, 18 µM; with UACC-62 melanoma, 3.02 µM; with UO-31 renal, 12.1 µM.

Regarding `Oc1cccc(Nc2nc3ccccc3c3occc23)c1`, the GI50 in the assay with A549 NSCLC is 10.9 µM; in the assay with HCT-116 colon, 17.3 µM; in the assay with MDA-MB-231 breast it was 11.5 µM; in the assay with MDA-MB-435, 3.04 µM; with PC-3 prostate, 8.59 µM; in the assay on RPMI-8226 leukemia it was 4.98 µM. Further, the GI50 with SK-MEL-28 melanoma was 0.364 µM; in the assay on UACC-62 melanoma, 11.1 µM; in the assay with UO-31 renal, 10.5 µM. The TGI was determined as 22.8 µM in the assay on A549 NSCLC; 31.1 µM with HCT-116 colon; 27 µM in the assay on MDA-MB-231 breast; 14.8 µM in the assay with MDA-MB-435; 21 µM in the assay on PC-3 prostate; 18.2 µM in the assay on RPMI-8226 leukemia. In addition, the TGI in the assay with SK-MEL-28 melanoma was 12.5 µM; in the assay on UACC-62 melanoma, 23.1 µM; with UO-31 renal it was 22.2 µM.

For `O=C1OCC2=C1C(c1cccc(F)c1)c1cc3c(cc1N2CCO)OCO3` (configuration not stated), the GI50 with A549 NSCLC was 8.74 µM; with HCT-116 colon it was 1.53 µM; in the assay with MDA-MB-231 breast, 3.09 µM; in the assay on MDA-MB-435 it was 0.187 µM; with MOLT-4 leukemia it was 3.02 µM; with PC-3 prostate, 1.46 µM. For the same molecule, the GI50 in the assay on RPMI-8226 leukemia is 2.28 µM; with SK-MEL-28 melanoma, 20.3 µM; in the assay with UACC-62 melanoma it was 2.25 µM; in the assay on UO-31 renal, 2.88 µM. The TGI in the assay with A549 NSCLC is > 50 µM; in the assay on HCT-116 colon it was > 50 µM; with MDA-MB-231 breast, > 50 µM; with MDA-MB-435, 1.57 µM; in the assay on MOLT-4 leukemia, > 50 µM; with PC-3 prostate, > 50 µM. Moreover, the TGI with RPMI-8226 leukemia, with SK-MEL-28 melanoma, in the assay with UACC-62 melanoma and in the assay with UO-31 renal was > 50 µM each time.

With `CCN1C(=O)N(CC)C2C1NN=c1s/c(=C\c3ccc(Cl)cc3Cl)c(=O)n12` (configuration not stated), the GI50 in the assay with A549 NSCLC is 0.0369 µM; in the assay on HCT-116 colon it was 0.0317 µM; in the assay on MDA-MB-231 breast, 0.0336 µM; with MDA-MB-435, 0.0206 µM; in the assay with MOLT-4 leukemia, 0.0421 µM; in the assay on PC-3 prostate, 0.0408 µM. The GI50 in the assay on RPMI-8226 leukemia is 0.0391 µM; with SK-MEL-28 melanoma, 2.48 µM; in the assay on UACC-62 melanoma, 0.064 µM; in the assay on UO-31 renal it was 0.167 µM. For the same molecule, the TGI in the assay on A549 NSCLC is > 55.5 µM; in the assay with MDA-MB-231 breast, 4.79 µM; in the assay on MDA-MB-435, 0.0572 µM; in the assay on MOLT-4 leukemia, > 64.5 µM; in the assay on PC-3 prostate, > 53.4 µM; in the assay with RPMI-8226 leukemia it was 7.25 µM. Besides, the TGI with SK-MEL-28 melanoma was > 100 µM; in the assay on UACC-62 melanoma, > 51.5 µM; in the assay with UO-31 renal it was 60.4 µM.

As for `c1ccc(NN(Cc2cnccn2)c2ccccc2)cc1`, the TGI in the assay with A549 NSCLC, with HCT-116 colon, in the assay on MDA-MB-231 breast, in the assay on MDA-MB-435, with MOLT-4 leukemia and in the assay on PC-3 prostate was > 100 µM in each case. Besides, the TGI in the assay with RPMI-8226 leukemia, with SK-MEL-28 melanoma and in the assay on UACC-62 melanoma was > 100 µM in each case.

Take `CO/N=C(\COc1ccc2c(c1)[nH]c1ccccc12)c1ccc(OC)cc1`: the GI50 in the assay with A549 NSCLC is 5.29 µM; with HCT-116 colon it was 28.3 µM; in the assay with MDA-MB-231 breast it was > 100 µM; in the assay on MDA-MB-435, 43.3 µM; in the assay with MOLT-4 leukemia it was 27.9 µM; with PC-3 prostate, 18.3 µM. Besides, the GI50 was > 100 µM in the assay with RPMI-8226 leukemia, 11.8 µM with SK-MEL-28 melanoma, 26.6 µM in the assay with UACC-62 melanoma and > 100 µM with UO-31 renal. Further, the TGI is 25.2 µM in the assay with A549 NSCLC; > 100 µM with HCT-116 colon; > 100 µM with MDA-MB-231 breast; > 100 µM in the assay on MDA-MB-435; > 100 µM in the assay on MOLT-4 leukemia; > 100 µM with PC-3 prostate. In addition, the TGI in the assay with RPMI-8226 leukemia was > 100 µM; in the assay on SK-MEL-28 melanoma it was 69.3 µM; in the assay with UACC-62 melanoma, > 100 µM; in the assay on UO-31 renal, > 100 µM.

As for `O=S(=O)(/N=c1\scc(-c2ccccc2)n1-c1ccccc1)c1ccc(N2N=C3c4ccccc4CC3C2c2ccc(Cl)cc2)cc1` (configuration not stated), the GI50 with A549 NSCLC was 31.4 µM; with HCT-116 colon, 47.5 µM; with MDA-MB-231 breast, 70 µM; with MDA-MB-435 it was 24.2 µM; with MOLT-4 leukemia it was 18.5 µM; with PC-3 prostate it was 19.1 µM. For the same molecule, the GI50 was 21.5 µM in the assay on RPMI-8226 leukemia, 67.7 µM in the assay on SK-MEL-28 melanoma, 32.7 µM in the assay with UACC-62 melanoma and 45.4 µM with UO-31 renal. The TGI in the assay on A549 NSCLC, in the assay on HCT-116 colon, with MDA-MB-231 breast, in the assay with MDA-MB-435, in the assay with MOLT-4 leukemia and in the assay on PC-3 prostate was > 100 µM in each case. Further, the TGI with RPMI-8226 leukemia, with SK-MEL-28 melanoma, in the assay with UACC-62 melanoma and in the assay with UO-31 renal was > 100 µM in each case.

Turning to `CC(=O)Nc1ccc(-c2cc(C(=O)O)c3cc4ccccc4cc3n2)cc1`, the TGI with A549 NSCLC, in the assay with HCT-116 colon, in the assay with MDA-MB-231 breast, in the assay with MDA-MB-435, in the assay on MOLT-4 leukemia and in the assay with PC-3 prostate was > 100 µM in each case. Further, the TGI in the assay with RPMI-8226 leukemia, with SK-MEL-28 melanoma and in the assay with UACC-62 melanoma was > 100 µM in each case.

For `Cc1ccc2cnc(N)c(C#Cc3cc(C(=O)Nc4ccc(CN5CCN(C)CC5)c(C(F)(F)F)c4)cnc3C)c2c1`, the GI50 in the assay with HCT-116 colon is 0.513 µM; in the assay with MDA-MB-231 breast, 0.29 µM; with MDA-MB-435, 0.262 µM; in the assay with PC-3 prostate it was 0.734 µM; with RPMI-8226 leukemia it was 1.01 µM; in the assay with SK-MEL-28 melanoma it was 0.609 µM. Further, the GI50 with UACC-62 melanoma is 0.234 µM; in the assay with UO-31 renal, 0.621 µM. For the same molecule, the TGI in the assay with HCT-116 colon amounted to 1.39 µM; in the assay with MDA-MB-231 breast, 1.06 µM; with MDA-MB-435, 1.01 µM; in the assay with PC-3 prostate, 1.56 µM; with RPMI-8226 leukemia it was 2.86 µM; in the assay on SK-MEL-28 melanoma, 1.36 µM. For the same molecule, the TGI with UACC-62 melanoma is 1.08 µM; with UO-31 renal it was 1.3 µM.

As to `Clc1ccc(-c2cn3ccnc3c(-c3ccc(Cl)cc3)n2)cc1`, the GI50 is 8.31 µM in the assay on A549 NSCLC; 12.2 µM in the assay with HCT-116 colon; 7.04 µM in the assay with MDA-MB-231 breast; 2.79 µM in the assay with MDA-MB-435; 0.462 µM with MOLT-4 leukemia; 19.6 µM in the assay on PC-3 prostate. Also, the results for the GI50 in the assay with RPMI-8226 leukemia, with SK-MEL-28 melanoma and in the assay on UACC-62 melanoma were 10.1 µM, > 100 µM and 36.2 µM, respectively. For the same molecule, the TGI in the assay on A549 NSCLC is > 100 µM; in the assay with HCT-116 colon it was > 100 µM; in the assay on MDA-MB-231 breast, 47 µM; in the assay on MDA-MB-435, 8.07 µM; with MOLT-4 leukemia, > 100 µM; in the assay with PC-3 prostate, > 100 µM. Besides, the TGI in the assay on RPMI-8226 leukemia, in the assay on SK-MEL-28 melanoma and in the assay on UACC-62 melanoma was > 100 µM throughout.
